# Like-named read-outs stand apart in the source and are kept apart here.
# What was measured:
# [1] = target: soluble guanylate cyclase (sGC) (Homo sapiens (Human), UniProt Q02108+Q02153); assay: sGC-HEK-cGMP assay run with SNP incubation (HEK WC assay); assay type: cell-based
# How it was run: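 HEK293 cells with endogenous sGC were pretreated with 0.5 mM IBMX for 15 min at 37 °C, then exposed to test compound plus sodium nitroprusside for 10 min at 37 °C.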
# [2] = target: T1, Human soluble guanylate cyclase enzyme (hsGC) (Homo sapiens (Human), UniProt Q02108+Q02153); assay: Purified human sGC enzyme activity assay; assay type: biochemical
# T1 sequence (Q02153 whole entry): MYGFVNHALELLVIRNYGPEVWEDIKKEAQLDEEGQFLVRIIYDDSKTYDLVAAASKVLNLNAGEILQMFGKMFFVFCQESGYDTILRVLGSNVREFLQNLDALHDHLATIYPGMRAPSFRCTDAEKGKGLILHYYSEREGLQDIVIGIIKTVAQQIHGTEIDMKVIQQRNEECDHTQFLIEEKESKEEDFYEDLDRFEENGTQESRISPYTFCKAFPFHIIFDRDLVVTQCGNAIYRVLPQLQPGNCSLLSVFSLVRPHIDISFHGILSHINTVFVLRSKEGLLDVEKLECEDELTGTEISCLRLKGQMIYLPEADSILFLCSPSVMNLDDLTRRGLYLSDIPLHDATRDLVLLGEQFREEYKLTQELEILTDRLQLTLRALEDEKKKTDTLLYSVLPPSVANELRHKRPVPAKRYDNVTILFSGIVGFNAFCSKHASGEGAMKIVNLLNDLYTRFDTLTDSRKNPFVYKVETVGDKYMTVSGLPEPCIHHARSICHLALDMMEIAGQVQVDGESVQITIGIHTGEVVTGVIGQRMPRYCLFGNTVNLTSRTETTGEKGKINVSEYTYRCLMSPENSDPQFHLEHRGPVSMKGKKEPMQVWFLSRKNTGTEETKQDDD
# T1 sequence (Q02108 whole entry): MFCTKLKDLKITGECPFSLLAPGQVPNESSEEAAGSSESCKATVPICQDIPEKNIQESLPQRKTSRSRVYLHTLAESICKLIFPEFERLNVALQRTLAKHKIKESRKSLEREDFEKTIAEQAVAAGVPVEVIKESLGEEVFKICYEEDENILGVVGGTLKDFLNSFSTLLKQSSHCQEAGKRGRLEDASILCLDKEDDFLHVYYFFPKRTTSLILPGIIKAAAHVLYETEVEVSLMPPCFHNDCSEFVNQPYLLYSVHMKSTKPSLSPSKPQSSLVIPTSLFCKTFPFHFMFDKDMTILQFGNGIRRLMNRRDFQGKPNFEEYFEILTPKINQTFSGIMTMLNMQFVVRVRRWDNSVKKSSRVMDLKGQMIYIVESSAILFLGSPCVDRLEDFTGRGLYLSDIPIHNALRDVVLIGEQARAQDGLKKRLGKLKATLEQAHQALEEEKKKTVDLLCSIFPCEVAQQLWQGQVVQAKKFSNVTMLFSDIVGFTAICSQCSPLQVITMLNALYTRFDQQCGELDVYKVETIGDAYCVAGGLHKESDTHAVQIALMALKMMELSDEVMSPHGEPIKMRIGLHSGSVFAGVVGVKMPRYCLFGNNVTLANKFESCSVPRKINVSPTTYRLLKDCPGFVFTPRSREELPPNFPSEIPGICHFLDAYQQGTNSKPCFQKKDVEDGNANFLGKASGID
# How it was run: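 Purified human sGC (5 ng) incubated 30 min at 37° C with compound at 10 or 30 μM final in pH 8.0 Tris with 300 μM GTP, 2 mM MgCl2, 2 mM DTT and 1 mM IBMX, then stopped with cold methanol. cGMP quantified against a standard curve. Specific activity (nmol cGMP/mg sGC/min) expressed as fold-change over DMSO control.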
# [3] = target: T1, Human soluble guanylate cyclase enzyme (hsGC); assay: Purified human sGC enzyme synergy assay in the presence of 1 μM sodium nitroprusside (SNP); assay type: biochemical; details: for sGC Enzyme (fold increase at 10 μM with SNP): 10 μM compound; for sGC Enzyme (fold increase at 30 μM with SNP): 30 μM compound
# Protocol: Human soluble guanylate cyclase enzyme (hsGC) obtained from Enzo Inc. (P/N: ALX-201-177) was used to evaluate the activity of test compounds. The assay reactions contained 0.1 M Tris (pH 8.0), 0.5 mg/mL BSA (pH 8.0), 2 mM DTT, 2 mM MgCl2, 300 μM GTP, 1 mM 3-isobutyl-1-methylxanthine (IBMX) and 5 ng human soluble guanylate cyclase enzyme. Test compounds in DMSO were then added (2 μL, 10 or 30 μM final concentration) and incubated (200 μL, 96-well plate format) at 37° C. for 30 minutes. The controls were carried out using 2 μL DMSO. After the 30 minute incubation, the reaction was stopped with the addition of 200 μL of cold methanol. The plate was then centrifuged at 3,200 rpm for 10 minutes at room temperature. Supernatants (200 μL) were collected and transferred to a new 96 well plate for analysis.
# An 8 point cGMP (Sigma-Aldrich P/N: G6129) standard curve was prepared in assay buffer ranging from 0.156-20 μM. Samples for the cGMP standard curve were then diluted with an equal volume of methanol resulting in final cGMP concentrations of 0.078-10 μM.
# The cGMP standard curve was generated using GraphPad Prism Software.
# Calculations: Specific Activity was determined by the amount of cGMP formed (nmoles) per mg of sGC per min. Enzyme “fold-change” was calculated by dividing Specific Activity for test compounds by Specific Activity of DMSO controls.
# Enzyme assays were performed as described above, but was done in the presence of 1 μM sodium nitroprusside (SNP).
# [4] = read-out: HEK WC Assay (% Emax at 10 μM/with 10 uM SNP)
# [5] = read-out: HEK WC Assay (% Emax at 30 μM/with 10 uM SNP)
# [6] = 30 μM compound, without the addition of SNP
# Chain of soluble guanylate cyclase (sGC) (Q02153 whole entry): as the sequence (Q02153 whole entry) above
# Chain of soluble guanylate cyclase (sGC) (Q02108 whole entry): as the sequence (Q02108 whole entry) above
"Emax at 10 µM [1, 4]","Emax at 30 µM [1, 5]","sGC Enzyme (fold increase at 30 μM) [2, 6]",sGC Enzyme (fold increase at 30 μM with SNP) ([3]; with the addition of SNP),also measured,Compound
–,–,–,–,"Emax at 10 µM ([1]; read-out: HEK WC Assay (% Emax at 10 uM/with 10 uM SNP)): 0 to 10%; Emax at 30 µM ([1]; read-out: HEK WC Assay (% Emax at 30 uM/with 10 uM SNP)): 0 to 10%; sGC Enzyme (fold increase at 10 μM without SNP) ([2]; 10 μM compound, without SNP): A (A = no increase to <2 fold increase); sGC Enzyme (fold increase at 30 μM without SNP) ([2]; 30 μM compound, without SNP): A (A = no increase to <2 fold increase); sGC Enzyme (fold increase at 10 μM with SNP) ([3]; with 1 μM SNP): A (A = no increase to <2 fold increase); sGC Enzyme (fold increase at 30 μM with SNP) ([3]; with 1 μM SNP): A (A = no increase to <2 fold increase)","Cc1ccc(-c2c(C#N)c(-c3ncccn3)nn2Cc2ccccc2F)cc1 [Compound I-69, 1-(2-fluorobenzyl)-3-(pyrimidin-2-yl)-5-p-tolyl-1H-pyrazole-4-carbonitrile]"
0 to 10%,0 to 10%,A (A = no increase to <2 fold increase),A (A = no increase to <2 fold increase),–,"Cc1cccc(-c2cc(-c3ncccn3)nn2Cc2ccccc2F)n1 [Compound I-70, 2-(1-(2-fluorobenzyl)-5-(6-methylpyridin-2-yl)-1H-pyrazol-3-yl)pyrimidine]"
0 to 10%,0 to 10%,A (A = no increase to <2 fold increase),A (A = no increase to <2 fold increase),"sGC Enzyme (fold increase at 10 μM) ([2]; 10 μM compound, without the addition of SNP): A (A = no increase to <2 fold increase); sGC Enzyme (fold increase at 10 μM with SNP) ([3]; with the addition of SNP): A (A = no increase to <2 fold increase)","Oc1cccc(-c2cc(-c3ccccn3)nn2Cc2ccccc2F)n1 [Compound I-79, 6-(1-(2-fluorobenzyl)-3-(pyridin-2-yl)-1H-pyrazol-5-yl)pyridin-2-ol]"
0 to 10%,0 to 10%,A (A = no increase to <2 fold increase),A (A = no increase to <2 fold increase),–,"Cc1cccc(-c2cc(-c3ncccn3)n(Cc3ccccc3F)n2)n1 [Compound I-81, 2-(1-(2-fluorobenzyl)-3-(6-methylpyridin-2-yl)-1H-pyrazol-5-yl)pyrimidine]"
0 to 10%,0 to 10%,A (A = no increase to <2 fold increase),A (A = no increase to <2 fold increase),–,COC(=O)N(C)c1c(N)nc(-c2cc(-c3ccccn3)n(Cc3ccccc3F)n2)nc1N [Compound I-88]
0 to 10%,0 to 10%,A (A = no increase to <2 fold increase),A (A = no increase to <2 fold increase),–,COC(=O)Nc1c(N)nc(-c2cc(-c3ccccn3)n(Cc3ccccc3F)n2)nc1N [Compound I-89]
0 to 10%,0 to 10%,A (A = no increase to <2 fold increase),B (B = 2 to <5 fold increase),–,Fc1ccccc1Cn1nc(-c2ncccn2)cc1C1CC1 [Compound I-90]
0 to 10%,10 to 20%,B (B = 2 to <5 fold increase),C (C = 5 to <10 fold increase),–,Fc1ccccc1Cn1nc(-c2ncccn2)cc1-c1ccc(Cl)s1 [Compound I-91]
10 to 20%,20 to 40%,B (B = 2 to <5 fold increase),C (C = 5 to <10 fold increase),–,COC(=O)Nc1c(N)nc(-c2cc(-c3nccs3)n(Cc3ccccc3F)n2)nc1N [Compound I-93]
0 to 10%,0 to 10%,A (A = no increase to <2 fold increase),B (B = 2 to <5 fold increase),–,CC(=O)Nc1c(N)nc(-c2cc(-c3nccs3)n(Cc3ccccc3F)n2)nc1N [Compound I-94]
10 to 20%,20 to 40%,A (A = no increase to <2 fold increase),C (C = 5 to <10 fold increase),–,Cc1nc2c(N)nc(-c3cc(-c4nccs4)n(Cc4ccccc4F)n3)nc2[nH]1 [Compound I-95]
20 to 40%,20 to 40%,B (B = 2 to <5 fold increase),C (C = 5 to <10 fold increase),–,Cn1c(=O)[nH]c2nc(-c3cc(-c4nccs4)n(Cc4ccccc4F)n3)nc(N)c21 [Compound I-96]
60 to 80%,20 to 40%,B (B = 2 to <5 fold increase),D (D = 10 to <30 fold increase),–,"Cn1c(=O)[nH]c2nc(-c3cc(-c4ncco4)n(Cc4ccccc4F)n3)nc(N)c21 [Compound I-101, 6-amino-2-(1-(2-fluorobenzyl)-5-(oxazol-2-yl)-1H-pyrazol-3-yl)-7-methyl-7H-purin-8(9H)-one]"
20 to 40%,20 to 40%,A (A = no increase to <2 fold increase),B (B = 2 to <5 fold increase),–,"Nc1cc(N)nc(-c2cc(-c3ccon3)n(Cc3ccccc3F)n2)n1 [Compound I-103, 2-(1-(2-fluorobenzyl)-5-(isoxazol-3-yl)-1H-pyrazol-3-yl)pyrimidine-4,6-diamine]"
40 to 60%,> 120%,B (B = 2 to <5 fold increase),C (C = 5 to <10 fold increase),–,Nc1nc(-c2cc(-c3ccon3)n(Cc3ccccc3F)n2)ncc1C1CC1 [Compound I-104]
60 to 80%,0 to 10%,B (B = 2 to <5 fold increase),C (C = 5 to <10 fold increase),–,"Cl.Nc1cnc(-c2cc(-c3ccon3)n(Cc3ccccc3F)n2)nc1N [Compound I-107, 2-(1-(2-fluorobenzyl)-5-(isoxazol-3-yl)-1H-pyrazol-3-yl)pyrimidine-4,5-diamine hydrochloride]"
20 to 40%,20 to 40%,A (A = no increase to <2 fold increase),B (B = 2 to <5 fold increase),–,Nc1nc(-c2cc(-c3ccon3)n(Cc3ccccc3F)n2)ncc1-c1nccs1 [Compound I-108]
60 to 80%,40 to 60%,B (B = 2 to <5 fold increase),C (C = 5 to <10 fold increase),–,Cc1cc(N)nc(-c2cc(-c3ccon3)n(Cc3ccccc3F)n2)n1 [Compound I-111]
20 to 40%,40 to 60%,A (A = no increase to <2 fold increase),C (C = 5 to <10 fold increase),–,Nc1nc(-c2cc(-c3ccon3)n(Cc3ccccc3F)n2)ncc1C(F)(F)F [Compound I-113]
40 to 60%,40 to 60%,B (B = 2 to <5 fold increase),D (D = 10 to <30 fold increase),–,CC(C)(C)c1cnc(-c2cc(-c3ccon3)n(Cc3ccccc3F)n2)nc1N [Compound I-114]
20 to 40%,20 to 40%,B (B = 2 to <5 fold increase),C (C = 5 to <10 fold increase),–,Nc1cc(-c2cccnc2)nc(-c2cc(-c3ccon3)n(Cc3ccccc3F)n2)n1 [Compound I-116]
0 to 10%,0 to 10%,A (A = no increase to <2 fold increase),C (C = 5 to <10 fold increase),–,CS(=O)(=O)c1cnc(-c2cc(-c3ccon3)n(Cc3ccccc3F)n2)nc1N [Compound I-120]
20 to 40%,60 to 80%,C (C = 5 to <10 fold increase),D (D = 10 to <30 fold increase),–,Nc1nc(-c2cc(-c3ccon3)n(Cc3ccccc3F)n2)ncc1-c1ccccc1 [Compound I-122]
60 to 80%,60 to 80%,C (C = 5 to <10 fold increase),D (D = 10 to <30 fold increase),–,Nc1nc(-c2cc(-c3ccon3)n(Cc3ccccc3F)n2)ncc1-c1cccnc1 [Compound I-127]

# From patent publication US10189809B2, “SGC stimulators” (Ironwood Pharmaceuticals, Inc., priority 2010, dated 2019)
